Laboratory results published in the supplement of paper PMC4862054.

system: CAL-148; test: normalised response (% of control), CellTiter-Glo; higher = more viable cells (100 = DMSO, 0 = benzethonium chloride kill control); details: incubation time: 72 h
Outline: (§1)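 Every value is a normalised signal taken at one concentration of a dilution series. Compound was placed in 384-well plates at 5 concentrations in 10-fold steps over a compound-specific 10,000-fold range, and 20 µl of breast cancer cell suspension was seeded onto it. After 72 h, CellTox Green fluorescence (485/520 nm) was measured first and CellTiter-Glo luminescence second, following 10 min at room temperature. Each plate was scaled to 0.1 % DMSO (100) and a positive kill control (0).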

| SMILES | normalised response |
| --- | --- |
| CC[C@H](Nc1ncnc2[nH]cnc12)c1nc2cccc(F)c2c(=O)n1-c1ccccc1 [GS-1101] (1000 nM) | 97.7% |
| C=CC(=O)N1CCC[C@@H](n2nc(-c3ccc(Oc4ccccc4)cc3)c3c(N)ncnc32)C1 [Ibrutinib] (100 nM) | 95.4% |

system: CAL-85-1; test: as above; details: incubation time: 72 h
Outline: as §1

| SMILES | normalised response |
| --- | --- |
| Nc1nc(F)nc2c1ncn2[C@@H]1O[C@H](CO)[C@@H](O)[C@@H]1O [Fludarabine] (1000 nM) | 98.5% |
| Nc1ccccc1NC(=O)c1ccc(CNC(=O)OCc2cccnc2)cc1 [Entinostat] (1000 nM) | 105% |
| CNC(=O)c1cc(Oc2ccc(NC(=O)Nc3cc(C(C)(C)C)nn3-c3ccc4ncccc4c3)c(F)c2)ccn1 [Rebastinib] (100 nM) | 101% |
| Cc1ccc(-c2cc(C(F)(F)F)nn2-c2ccc(S(N)(=O)=O)cc2)cc1 [Celecoxib] (1000 nM) | 93.3% |
| CCN(CC)CCCC(C)Nc1c2ccc(Cl)cc2nc2ccc(OC)cc12 (stereo not given) [Mepacrine] (5000 nM) | 101% |
| C=CC(=O)Nc1cc2c(Nc3ccc(F)c(Cl)c3)ncnc2cc1OCCCN1CCOCC1 [Canertinib] (1000 nM) | 49.2% |
| C[C@H]1C[C@@H]2[C@H]([C@@H](O)C[C@@]3(C)[C@H]2CC[C@]3(O)C(=O)CO)[C@@]2(C)C=CC(=O)C=C12 [Methylprednisolone] (1000 nM) | 117% |
| CC[C@H](Nc1ncnc2[nH]cnc12)c1nc2cccc(F)c2c(=O)n1-c1ccccc1 [GS-1101] (1000 nM) | 93.2% |
| C=CC(=O)N1CCC[C@@H](n2nc(-c3ccc(Oc4ccccc4)cc3)c3c(N)ncnc32)C1 [Ibrutinib] (100 nM) | 90.4% |

system: HCC1143; test: normalised response (% of control), CellTox Green; higher = less cell death (100 = DMSO, 0 = benzethonium chloride kill control); details: incubation time: 72 h
Outline: as §1

| SMILES | normalised response |
| --- | --- |
| Nc1nc(F)nc2c1ncn2[C@@H]1O[C@H](CO)[C@@H](O)[C@@H]1O [Fludarabine] (1000 nM) | 117% |
| CNC(=O)c1cc(Oc2ccc(NC(=O)Nc3cc(C(C)(C)C)nn3-c3ccc4ncccc4c3)c(F)c2)ccn1 [Rebastinib] (100 nM) | 113% |
| Cc1ccc(-c2cc(C(F)(F)F)nn2-c2ccc(S(N)(=O)=O)cc2)cc1 [Celecoxib] (1000 nM) | 104% |
| C=CC(=O)Nc1cc2c(Nc3ccc(F)c(Cl)c3)ncnc2cc1OCCCN1CCOCC1 [Canertinib] (1000 nM) | 102% |
| C[C@H]1C[C@@H]2[C@H]([C@@H](O)C[C@@]3(C)[C@H]2CC[C@]3(O)C(=O)CO)[C@@]2(C)C=CC(=O)C=C12 [Methylprednisolone] (1000 nM) | 108% |
| CC[C@H](Nc1ncnc2[nH]cnc12)c1nc2cccc(F)c2c(=O)n1-c1ccccc1 [GS-1101] (1000 nM) | 97.4% |
| C=CC(=O)N1CCC[C@@H](n2nc(-c3ccc(Oc4ccccc4)cc3)c3c(N)ncnc32)C1 [Ibrutinib] (100 nM) | 92.1% |

system: BT-549; test: as above; details: incubation time: 72 h
Outline: as §1

| SMILES | normalised response |
| --- | --- |
| Nc1nc(F)nc2c1ncn2[C@@H]1O[C@H](CO)[C@@H](O)[C@@H]1O [Fludarabine] (1000 nM) | 107% |
| Nc1ccccc1NC(=O)c1ccc(CNC(=O)OCc2cccnc2)cc1 [Entinostat] (1000 nM) | 114% |
| CNC(=O)c1cc(Oc2ccc(NC(=O)Nc3cc(C(C)(C)C)nn3-c3ccc4ncccc4c3)c(F)c2)ccn1 [Rebastinib] (100 nM) | 95% |
| Cc1ccc(-c2cc(C(F)(F)F)nn2-c2ccc(S(N)(=O)=O)cc2)cc1 [Celecoxib] (1000 nM) | 115% |
| CCN(CC)CCCC(C)Nc1c2ccc(Cl)cc2nc2ccc(OC)cc12 (stereo not given) [Mepacrine] (5000 nM) | 57.4% |
| C=CC(=O)Nc1cc2c(Nc3ccc(F)c(Cl)c3)ncnc2cc1OCCCN1CCOCC1 [Canertinib] (1000 nM) | 135% |
| C[C@H]1C[C@@H]2[C@H]([C@@H](O)C[C@@]3(C)[C@H]2CC[C@]3(O)C(=O)CO)[C@@]2(C)C=CC(=O)C=C12 [Methylprednisolone] (1000 nM) | 131% |
| CC[C@H](Nc1ncnc2[nH]cnc12)c1nc2cccc(F)c2c(=O)n1-c1ccccc1 [GS-1101] (1000 nM) | 105% |
| C=CC(=O)N1CCC[C@@H](n2nc(-c3ccc(Oc4ccccc4)cc3)c3c(N)ncnc32)C1 [Ibrutinib] (100 nM) | 117% |

system: HDQ-P1; test: as above; details: incubation time: 72 h
Outline: as §1

| SMILES | normalised response |
| --- | --- |
| Nc1nc(F)nc2c1ncn2[C@@H]1O[C@H](CO)[C@@H](O)[C@@H]1O [Fludarabine] (1000 nM) | 111% |
| Nc1ccccc1NC(=O)c1ccc(CNC(=O)OCc2cccnc2)cc1 [Entinostat] (1000 nM) | 109% |
| CNC(=O)c1cc(Oc2ccc(NC(=O)Nc3cc(C(C)(C)C)nn3-c3ccc4ncccc4c3)c(F)c2)ccn1 [Rebastinib] (100 nM) | 94.4% |
| Cc1ccc(-c2cc(C(F)(F)F)nn2-c2ccc(S(N)(=O)=O)cc2)cc1 [Celecoxib] (1000 nM) | 112% |
| CCN(CC)CCCC(C)Nc1c2ccc(Cl)cc2nc2ccc(OC)cc12 (stereo not given) [Mepacrine] (5000 nM) | 111% |
| C=CC(=O)Nc1cc2c(Nc3ccc(F)c(Cl)c3)ncnc2cc1OCCCN1CCOCC1 [Canertinib] (1000 nM) | 97.2% |
| C[C@H]1C[C@@H]2[C@H]([C@@H](O)C[C@@]3(C)[C@H]2CC[C@]3(O)C(=O)CO)[C@@]2(C)C=CC(=O)C=C12 [Methylprednisolone] (1000 nM) | 105% |
| CC[C@H](Nc1ncnc2[nH]cnc12)c1nc2cccc(F)c2c(=O)n1-c1ccccc1 [GS-1101] (1000 nM) | 106% |
| C=CC(=O)N1CCC[C@@H](n2nc(-c3ccc(Oc4ccccc4)cc3)c3c(N)ncnc32)C1 [Ibrutinib] (100 nM) | 102% |

system: CAL-120; test: as above; details: incubation time: 72 h
Outline: as §1

| SMILES | normalised response |
| --- | --- |
| Nc1nc(F)nc2c1ncn2[C@@H]1O[C@H](CO)[C@@H](O)[C@@H]1O [Fludarabine] (1000 nM) | 101% |
| Nc1ccccc1NC(=O)c1ccc(CNC(=O)OCc2cccnc2)cc1 [Entinostat] (1000 nM) | 102% |
| CNC(=O)c1cc(Oc2ccc(NC(=O)Nc3cc(C(C)(C)C)nn3-c3ccc4ncccc4c3)c(F)c2)ccn1 [Rebastinib] (100 nM) | 101% |
| Cc1ccc(-c2cc(C(F)(F)F)nn2-c2ccc(S(N)(=O)=O)cc2)cc1 [Celecoxib] (1000 nM) | 101% |
